Source: US20110124690A1, “COMPOSITIONS AND METHODS FOR TREATING CANCER OR A NEUROTROPHIC DISORDER” (priority 2007, published 2011)
Like-named read-outs stand apart in the source and are kept apart here.

Legend:
[1] = test system: CCRF-CEM/VBL (vinblastine-resistant) cells; assay: XTT microculture cytotoxicity assay, vinblastine-resistant CCRF-CEM/VBL cells; type: cell-based, human; conditions: for IC50: Homo sapiens, CCRF-CEM
Experimental: (§2) CCRF-CEM human T-cell acute lymphoblastic leukemia cells and the corresponding vinblastine-resistant cells (CCRF-CEM/VBL100) were cultured at an initial density of 5×10^4 cells per milliliter. The cultured cells were then maintained in a 5% CO2-humidified atmosphere at 37° C. in RPMI medium 1640 (GIBCO/BRL) containing penicillin (100 units/mL), streptomycin (100 μg/mL, GIBCO/BRL), and 10% heat-inactivated fetal bovine serum. The cytotoxicity of each Panaxytriol Compound was measured using the 2,3-bis(2-methoxy-4-nitro-5-sulfophenyl)-5-[(phenylamino)carbonyl]-2H-tetrazolium hydroxide (XTT) microculture method as described in Scudiero et al., Cancer Res., 48:4827 (1988).

[2] = test system: CCRF-CEM human T-cell acute lymphoblastic leukemia cells; assay: XTT microculture cytotoxicity assay, CCRF-CEM cells; type: cell-based
Experimental: as §2

CCRF-CEM/Taxol cells = assay: XTT microculture cytotoxicity assay, Taxol-resistant CCRF-CEM/Taxol cells; type: cell-based, human; conditions: Table 3A
Experimental: as §2

[3] = test system: human mammary carcinoma xenograft MX-1; assay: Therapeutic effect in nude mice bearing MX-1 xenograft; type: in vivo; conditions: slow i.v. infusion; for Tumor growth at elevated dosage levels: elevated dosages
Experimental: (§1) Nude mice having human mammary carcinoma xenograft MX-1 were treated with panaxytriol or Compound (A) at various dosages through the slow i.v. infusion protocol by Chou et al. (Chou, T. C., et al, Proc. Natl. Acad. Sci. U.S.A. 95: 15798 (1998)).

[4] = Body weight of treated nude mice bearing MX-1 xenograft; type: in vivo; conditions: highest dosage levels (100 mg/kg)
Experimental: as §1

[5] = 72 h, Table 3, XTT assay, 72-hour inhibition, read-out: IC50 (μM) CCRF-CEM
[6] = 72 h, Table 3, XTT assay, 72-hour inhibition, vinblastine-resistant cells

## C=CC(=O)C#CC#CC[C@@H](O)[C@H](O)CCCCCCC [Compound B]
[1]; Table 3
  Fold resistance (IC50 CCRF-CEM/VBL vs CCRF-CEM), in parentheses: 1.40 x

## C=C[C@H](C#CC#CC[C@H]1OC(C)(C)O[C@@H]1CCCCCCC)OC(=O)/C=C/c1ccccc1 [Compound (E)]
[2]; Table 3B, read-out: IC50 (in μM) for human leukemic lymphoblastic leukemia cells CCRF-CEM
  IC50: 6.51 µM

## C=C[C@H](O)C#CC#CC[C@H]1OC(C)(C)O[C@@H]1CCCCCCC [Compound (D)]
[1]; Table 3A
  Fold resistance, CCRF-CEM/VBL vs parent CCRF-CEM (fold increase in IC50): [1.98-fold
CCRF-CEM/Taxol cells
  Fold resistance, CCRF-CEM/Taxol vs parent CCRF-CEM (fold increase in IC50): [2.17-fold

## C=C[C@@H](O)C#CC#CC[C@H]1OC(C)(C)O[C@@H]1CCCCCCC [Compound A]
[2]; [5]
  IC50: 1.98 ± 0.2 µM
[2]; Table 3A, compound stored in DMSO at below approximately −20° C. for 4 years and 4 months, read-out: IC50 (μM) CCRF-CEM
  IC50: 6.15 µM
[1]; [6]
  IC50: 2.41 ± 0.05 µM
[1]; Table 3A, compound stored in DMSO at below approximately −20° C. for 4 years and 4 months
  IC50: 6.82 µM
[1]; Table 3A
  Fold resistance, CCRF-CEM/VBL vs parent CCRF-CEM (fold increase in IC50): [1.4-fold
CCRF-CEM/Taxol cells; Homo sapiens, CCRF-CEM, compound stored in DMSO at below approximately −20° C. for 4 years and 4 months
  IC50: 17.2 µM
[3]
  Tumor growth at elevated dosage levels: enhanced tumor-growth suppression
[3]; including elevated dosages
  Reduction in tumor mass: did not lead to a reduction in the tumor mass
[3]; levels as low as 10 mg/kg, FIG. 2
  Tumor growth: inhibiting tumor growth

## CC[C@]1(O)C[C@@H]2CN(CCc3c([nH]c4ccccc34)[C@@](C(=O)OC)(c3cc4c(cc3OC)N(C)[C@H]3[C@@](O)(C(=O)OC)[C@H](OC(C)=O)[C@]5(CC)C=CCN6CC[C@]43[C@@H]65)C2)C1 [Vinblastine, reference compound]
[2]; [5]
  IC50: 0.002 µM
[1]; [6]
  IC50: 0.8 µM

## C=CC(=O)C#CC#CC[C@H]1OC(C)(C)O[C@@H]1CCCCCCC [Compound C]
[2]; [5]
  IC50: 3.23 ± 0.78 µM
[1]; [6]
  IC50: 3.84 ± 0.08 µM

## C=C[C@@H](O)C#CC#CC[C@@H](O)[C@H](O)CCCCCCC [panaxytriol]
[1]; Table 3
  Fold resistance (IC50 CCRF-CEM/VBL vs CCRF-CEM), in parentheses: 1.20 x
[3]; 30 mg/kg, FIG. 1
  Reduction in tumor mass: no significant reduction in tumor mass
  Tumor growth: some suppression of tumor growth
[3]
  Tumor growth at elevated dosage levels: improved inhibitory effects
[4]
  Body weight: no body weight decrease
